“Also recorded” adds a separate entry of the source. Non-standard residues stand in square brackets, D forms with d. Residues, ends and D or L forms follow the SMILES beside them. No end group written: not given here. pGlu = O=C1CC[C@@H](C(=O)O)N1
Biological target: T1, AedaeACPR-I (Aedes aegypti, UniProt A0A2L0VBG2)
T1 construct: only the ACPR-I transcript yields a complete receptor protein which we functionally deorphanized; expressed in transfected cells; host or cells: CHO-K1 cells stably expressing aequorin, transient transfection with pcDNA3.1+
T1 sequence (A0A2L0VBG2 1-577): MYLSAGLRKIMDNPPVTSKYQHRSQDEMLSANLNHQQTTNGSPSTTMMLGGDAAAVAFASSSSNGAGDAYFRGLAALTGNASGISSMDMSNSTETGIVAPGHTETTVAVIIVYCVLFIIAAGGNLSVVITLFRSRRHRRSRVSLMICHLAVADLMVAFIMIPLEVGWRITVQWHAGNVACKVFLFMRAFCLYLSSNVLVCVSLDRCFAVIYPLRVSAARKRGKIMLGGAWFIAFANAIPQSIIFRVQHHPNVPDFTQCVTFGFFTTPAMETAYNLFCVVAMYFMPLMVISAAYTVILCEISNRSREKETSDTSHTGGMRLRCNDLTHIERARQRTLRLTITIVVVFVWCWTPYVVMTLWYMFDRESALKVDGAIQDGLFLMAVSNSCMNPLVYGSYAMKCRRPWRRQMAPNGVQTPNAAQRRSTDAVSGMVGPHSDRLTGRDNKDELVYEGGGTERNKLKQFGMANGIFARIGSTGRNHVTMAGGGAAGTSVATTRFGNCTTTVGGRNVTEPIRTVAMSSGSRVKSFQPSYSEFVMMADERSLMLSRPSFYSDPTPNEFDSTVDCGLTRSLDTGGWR
Test: Heterologous receptor functional assay (aequorin bioluminescence) in CHO-K1 cells transiently expressing AedaeACPR-I
Type: cell-based
Details: for EC50: CHOK1-aeq cells transiently expressing AedaeACPR-I, peptide doses 10^-12 to 10^-5 M in quadruplicate, luminescence response, average of multiple independent biological replicates (four independent transfections); for Receptor activation (luminescence response): CHO-K1 aequorin cells transiently expressing AedaeACPR-I, doses 10^-12 to 10^-5 M
Description: Functional activation of AedaeACPR-I was assayed using a previously established cell culture system involving a recombinant Chinese hamster ovary (CHO)-K1 cell line stably expressing aequorin[35]. […] At 48 hours post-transfection, cells were detached from the culture flasks using Dulbecco’s phosphate buffered saline (DPBS; Wisent Corporation, St. Bruno, QC) containing 5 mM EDTA and resuspended in BSA medium (DMEM-F12 media containing 0.1% bovine serum albumin, 1X antimycotic-antibiotic) to a concentration of 10^6–10^7 cells/mL. Coelenterazine h (Promega, Madison, WI, USA) was added to the cells to a final concentration of 5 μM, and incubated for 3 hours in the dark at room temperature on a stirrer set at 200 rpm. The cell suspension was then diluted 10-fold and incubated at room temperature for an additional hour. Serial dilutions of peptide ligands (Table 1) were prepared in BSA medium (10^−5 to 10^−12 M), and loaded in quadruplicates into 96-well luminescence plates (Greiner Bio-One, Germany). All peptides were commercially synthesized (Genscript, Piscataway, NJ) at a purity >90% and were prepared in dimethyl sulfoxide at a stock concentration of 1 mM. Cells were loaded into each well with an automatic injector unit and luminescence was measured for 20 seconds using a Synergy 2 Multi-Mode Microplate Reader (BioTek, Winooski, VT, USA). BSA medium alone was utilized as a negative control and 5 × 10^−5 M ATP was used as a positive control, which acts on endogenously expressed purinoceptors[36],[37]. EC50 values were calculated in GraphPad Prism 7.02 (GraphPad Software, San Diego, USA) from dose-dependent curves from four independent transfections.
A heterologous receptor functional assay involving CHO-K1 cells was used to validate the cloned receptor as a bona fide ACP receptor. […] Our findings in this study are consistent with past reports, since similar binding specificity of ACP receptors has been observed previously in T. castaneum, A. gambiae, and R. prolixus with EC50 values reported in the low nanomolar range[17],[25]. Additionally, previous research in the aforementioned insects have also observed that the AKH receptors are not activated by ACP or corazonin peptides, and similarly, the corazonin receptors are not activated by ACP or AKH peptides[17],[25],[43],[44].
Figure 4 Functional heterologous receptor assay of CHO-K1 aequorin cells transiently expressing the AedaeACPR-I. (a) Dose dependent effect on the bioluminescence response (mean 0–15 s) after the addition of between 10^−12–10^−5 M doses of A. aegypti ACP, AKH and CRZ peptides. Luminescence is normalized to the BSA control and plotted relative to the maximal response (10^−5 M). […] (b) Kinetics of the bioluminescence response measured between 0–5 s, 6–10 s, and 11–20 s time intervals, following the addition of 1 × 10^−6 M of the above peptides normalized to vehicle control (BSA media). Luminescence is normalized to the BSA control and plotted relative to the maximal response (10^−5 M). Data represent the mean ± standard error (n = 4).

## CC(C)[C@H](NC(=O)[C@@H]1CCC(=O)N1)C(=O)N[C@H](C(=O)N[C@@H](Cc1ccccc1)C(=O)N[C@@H](CO)C(=O)N[C@@H](CCCNC(=N)N)C(=O)N[C@@H](CC(=O)O)C(=O)N[C@@H](Cc1c[nH]c2ccccc12)C(=O)N[C@@H](CC(N)=O)C(=O)N[C@@H](C)C(N)=O)[C@@H](C)O [AedaeACP] ([pGlu]VTFSRDWNA-NH2)
  EC50: 0.0103 µM

## CC(C)C[C@H](NC(=O)[C@@H]1CCC(=O)N1)C(=O)N[C@H](C(=O)N[C@@H](Cc1ccccc1)C(=O)N[C@H](C(=O)N1CCC[C@H]1C(=O)N[C@@H](CO)C(=O)N[C@@H](Cc1c[nH]c2ccccc12)C(N)=O)[C@@H](C)O)[C@@H](C)O [AedaeAKH] ([pGlu]LTFTPSW-NH2)
  Receptor activation (luminescence response): no detectable luminescence indicative of receptor activation; also recorded: No receptor activation was detected
  EC50: > 10 µM

## C[C@@H](O)[C@H](NC(=O)[C@H](CC(N)=O)NC(=O)[C@H](Cc1c[nH]c2ccccc12)NC(=O)CNC(=O)[C@H](CCCNC(=N)N)NC(=O)[C@H](CO)NC(=O)[C@H](Cc1ccc(O)cc1)NC(=O)[C@H](CCC(N)=O)NC(=O)[C@H](Cc1ccccc1)NC(=O)[C@@H](NC(=O)[C@@H]1CCC(=O)N1)[C@@H](C)O)C(=O)N[C@@H](CC(N)=O)C(N)=O [AedaeCRZ] ([pGlu]TFQYSRGWNTN-NH2)
  Receptor activation (luminescence response): no detectable luminescence indicative of receptor activation; also recorded: No receptor activation was detected

## AGNSGANSGMWFGPRL-NH2 [AedaeCAPA-PK1]
Listed as AedaePK1
  Receptor activation (luminescence response): no detectable luminescence indicative of receptor activation; also recorded: No receptor activation was detected
  EC50: > 10 µM

## GPTVGLFAFPRV-NH2 [AedaeCAPA1]
  Receptor activation (luminescence response): No receptor activation was detected
  EC50: > 10 µM
Listed as AedaeCAPA-1
  Receptor activation (luminescence response): no detectable luminescence indicative of receptor activation

From paper PMC5794978, “Molecular identification, transcript expression, and functional deorphanization of the adipokinetic hormone/corazonin-related peptide receptor in the disease vector, Aedes aegypti” (Scientific Reports, 2018)
